Values of other authors as cited in patent US20220395547A1, “LIPOSOMAL FORMULATIONS FOR DELIVERY OF CANNABINOIDS AND METHODS OF MAKING THEREOF” (Vella Bioscience, Inc., priority 2019, published 2022).

System: microorganisms
Conditions: known from the art

For `CC(O)CO` (stereo not shown) [propylene glycol], the “Concentration at which antimicrobial activity is present” value is given as at least 20%.
